Columns and labels:
Assay type in all cases: biochemical
[1] = molecular target: T1, alkaline phosphatase (Bos taurus, UniProt P19111); assay: Chemiluminescent signal and signal:background with enhancer polymers (Example XVII)
Procedure: Four sets of three tubes each, each tube in each set containing 450 μl of a 0.4 mM aqueous solution of one of the four 1,2-dioxetanes being compared in 0.1M diethanolamine containing 1 mM magnesium chloride, 0.02% sodium azide and 0.1% of the enhancer polymer, pH 10.0 (substrate buffer) were prepared and the background signal from each tube measured using a Berthold LB 952T luminometer (Berthold Instruments; Wildbad, Federal Republic of Germany).
Next, 50 μl of an aqueous solution, 2.83×10^-12 M of alkaline phosphatase in 0.1M diethanolamine containing 1 mM magnesium chloride, 0.02% sodium azide, pH 10.0, (final enzyme concentration 2.83×10^-13 M) was added to each tube and the chemiluminescent signals were measured in the luminometer at 5 and 20 minutes. The intensity of the chemiluminescent signals and the signal: background ratios obtained for each of the four 1,2-dioxetanes in the presence of the enhancer polymers are shown in Table III below.
The enhancer polymers used, and the symbols for such polymers used in Table III, were the following: […]

[2] = molecular target: T1, alkaline phosphatase; assay: Half-time to plateau at low alkaline phosphatase concentration (Example XLI); conditions: 0.4 mM dioxetane at pH 10.0; 31.5° C.; 2.53 × 10^-13 M alkaline phosphatase; listed as HO-AMPPD-A
[3] = molecular target: T1, alkaline phosphatase; assay: Alkaline phosphatase detection limits, LabSystems Luminoskan (Example XXV)
Procedure: The detection means for alkaline phosphatase with different chemiluminescent 1,2-dioxetane substrates were determined as follows: Duplicates of serial dilutions (1 to 3) of alkaline phosphates were incubated at room temperature with 0.4 mM dioxetane in 0.1 M diethanolamine, 1 mM MgCl2, pH 10.0, containing 1 mg/ml of either of the polymeric enhancers Enhancer 1 or Enhancer 2, in […].
Following either a 5 or a 20 minute incubation with a substrate, the chemiluminescence intensity was measured as a 5 second integrated Relative Light Units (RLU) and plotted as in FIG. 10. […] The alkaline phosphatase concentrations at twice background were used as the detection limits in Table 5.
The luminometer used in this example was LabSystems Luminoskan microtiter plate reader.

T1 sequence (P19111 20-506 limits assumed): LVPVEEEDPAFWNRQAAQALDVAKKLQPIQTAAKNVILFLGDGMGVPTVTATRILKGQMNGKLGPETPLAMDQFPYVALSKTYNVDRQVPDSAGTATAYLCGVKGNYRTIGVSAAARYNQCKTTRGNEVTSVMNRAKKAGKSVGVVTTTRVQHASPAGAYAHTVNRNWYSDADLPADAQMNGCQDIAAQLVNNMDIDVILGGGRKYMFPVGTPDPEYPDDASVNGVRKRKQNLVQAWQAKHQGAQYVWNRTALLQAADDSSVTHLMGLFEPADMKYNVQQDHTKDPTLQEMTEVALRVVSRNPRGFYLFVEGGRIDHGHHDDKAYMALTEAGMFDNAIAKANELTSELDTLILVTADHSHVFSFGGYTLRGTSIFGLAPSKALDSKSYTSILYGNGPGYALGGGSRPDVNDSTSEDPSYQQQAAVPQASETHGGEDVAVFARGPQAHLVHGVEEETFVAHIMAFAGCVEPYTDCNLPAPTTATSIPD

In the case of `COC1(c2cccc(OP(=O)(O)O)c2)OOC12C1CC3CC2CC(O)(C3)C1` (single isomer, unassigned) [A-OH-AMPPD, disodium 3-(4-methoxyspiro-[1,2-dioxetane-3,2'-(5'-hydroxy)tricyclo[3.3.1.1^3,7]decan]-4-yl)phenyl phosphate], the S/N ([1]; polymer BAEDM, 5 min) is reported as 61.6, the SIGNAL ([1]; polymer BAEDM, 5 min) is reported as 5887.3 and the S/N ([1]; polymer BAEDM, 20 min) is reported as 77.8. It also gave an SIGNAL ([1]; polymer BAEDM, 20 min) of 7433.5, a S/N ([1]; polymer BAEDM, time 0) of 1.0 and an SIGNAL ([1]; polymer BAEDM, time 0 (background, before enzyme)) of 95.6. The S/N ([1]; polymer BZ, 5 min) was 27.0, the SIGNAL ([1]; polymer BZ, 5 min) was 2156.9 and the S/N ([1]; polymer BZ, 20 min) was 31.7. The SIGNAL ([1]; polymer BZ, 20 min) was 2536.7, the S/N ([1]; polymer BZ, time 0) was 1.0 and the SIGNAL ([1]; polymer BZ, time 0 (background, before enzyme)) was 79.9. For the same molecule, the S/N ([1]; polymer DAA TMQ, 5 min) was 61.7, the SIGNAL ([1]; polymer DAA TMQ, 5 min) was 5583.1 and the S/N ([1]; polymer DAA TMQ, 20 min) was 69.7. For the same molecule, the SIGNAL ([1]; polymer DAA TMQ, 20 min) was 6309.4, the S/N ([1]; polymer DAA TMQ, time 0) was 1.0 and the SIGNAL ([1]; polymer DAA TMQ, time 0 (background, before enzyme)) was 90.5. For the same molecule, the S/N ([1]; polymer DME(OH)B, 5 min) was 46.1, the SIGNAL ([1]; polymer DME(OH)B, 5 min) was 3931.9 and the S/N ([1]; polymer DME(OH)B, 20 min) was 66.2. It also gave an SIGNAL ([1]; polymer DME(OH)B, 20 min) of 5300.5, a S/N ([1]; polymer DME(OH)B, time 0) of 1.0 and an SIGNAL ([1]; polymer DME(OH)B, time 0 (background, before enzyme)) of 85.2. The S/N ([1]; polymer DMEB, 5 min) was 77.1, the SIGNAL ([1]; polymer DMEB, 5 min) was 6160.6 and the S/N ([1]; polymer DMEB, 20 min) was 98.1. The SIGNAL ([1]; polymer DMEB, 20 min) was 7835.2, the S/N ([1]; polymer DMEB, time 0) was 1.0 and the SIGNAL ([1]; polymer DMEB, time 0 (background, before enzyme)) was 79.9. The S/N ([1]; polymer DMQ TEQ, 5 min) was 189.7, the SIGNAL ([1]; polymer DMQ TEQ, 5 min) was 17235.6 and the S/N ([1]; polymer DMQ TEQ, 20 min) was 227.9. For the same molecule, the SIGNAL ([1]; polymer DMQ TEQ, 20 min) was 20702.2, the S/N ([1]; polymer DMQ TEQ, time 0) was 1.0 and the SIGNAL ([1]; polymer DMQ TEQ, time 0 (background, before enzyme)) was 90.8. It also gave a S/N ([1]; polymer MPB, 5 min) of 140.7, an SIGNAL ([1]; polymer MPB, 5 min) of 13165.3 and a S/N ([1]; polymer MPB, 20 min) of 172.7. For the same molecule, the SIGNAL ([1]; polymer MPB, 20 min) was 16159.2, the S/N ([1]; polymer MPB, time 0) was 1.0 and the SIGNAL ([1]; polymer MPB, time 0 (background, before enzyme)) was 93.6. The S/N ([1]; polymer NONE, 5 min) was 32.9, the SIGNAL ([1]; polymer NONE, 5 min, enzyme 2.83×10^-13 M) was 2863.6 and the S/N ([1]; polymer NONE, 20 min) was 36.3. For the same molecule, the SIGNAL ([1]; polymer NONE, 20 min, enzyme 2.83×10^-13 M) was 3160.8, the S/N ([1]; polymer NONE, time 0) was 1.0 and the SIGNAL ([1]; polymer NONE, time 0 (background, before enzyme)) was 87.0. The S/N ([1]; polymer S/TMQ(1:2), 5 min) was 112.5, the SIGNAL ([1]; polymer S/TMQ(1:2), 5 min) was 10193.8 and the S/N ([1]; polymer S/TMQ(1:2), 20 min) was 158.6. For the same molecule, the SIGNAL ([1]; polymer S/TMQ(1:2), 20 min) was 11365.1, the S/N ([1]; polymer S/TMQ(1:2), time 0) was 1.0 and the SIGNAL ([1]; polymer S/TMQ(1:2), time 0 (background, before enzyme)) was 90.6. For the same molecule, the S/N ([1]; polymer S/TMQ(1:4), 5 min) was 114.5, the SIGNAL ([1]; polymer S/TMQ(1:4), 5 min) was 9294.6 and the S/N ([1]; polymer S/TMQ(1:4), 20 min) was 148.1. It also gave an SIGNAL ([1]; polymer S/TMQ(1:4), 20 min) of 1201.7, a S/N ([1]; polymer S/TMQ(1:4), time 0) of 1.0 and an SIGNAL ([1]; polymer S/TMQ(1:4), time 0 (background, before enzyme)) of 81.2. For the same molecule, the SIGNAL ([1]; polymer SAPPHIRE (BDMQ), time 0 (background, before enzyme)) was 86.1, the S/N ([1]; polymer SAPPHIRE, 5 min) was 244.5 and the SIGNAL ([1]; polymer SAPPHIRE, 5 min) was 21051.3. The S/N ([1]; polymer SAPPHIRE, 20 min) was 292.3, the SIGNAL ([1]; polymer SAPPHIRE, 20 min) was 25330.3 and the S/N ([1]; polymer SAPPHIRE, time 0) was 1.0. It also gave a S/N ([1]; polymer TBQ, 5 min) of 366.0, an SIGNAL ([1]; polymer TBQ, 5 min) of 37244.5 and a S/N ([1]; polymer TBQ, 20 min) of 438.0. For the same molecule, the SIGNAL ([1]; polymer TBQ, 20 min) was 44569.8, the S/N ([1]; polymer TBQ, time 0) was 1.0 and the SIGNAL ([1]; polymer TBQ, time 0 (background, before enzyme)) was 101.8. It also gave a S/N ([1]; polymer TEQ, 5 min) of 45.24, an SIGNAL ([1]; polymer TEQ, 5 min) of 15779.8 and a S/N ([1]; polymer TEQ, 20 min) of 54.7. For the same molecule, the SIGNAL ([1]; polymer TEQ, 20 min) was 1908.9, the S/N ([1]; polymer TEQ, time 0) was 1.0 and the SIGNAL ([1]; polymer TEQ, time 0 (background, before enzyme)) was 348.8. The S/N ([1]; polymer TMQ, 5 min) was 113.6, the SIGNAL ([1]; polymer TMQ, 5 min) was 8853.4 and the S/N ([1]; polymer TMQ, 20 min) was 149.6. For the same molecule, the SIGNAL ([1]; polymer TMQ, 20 min) was 11658.3, the S/N ([1]; polymer TMQ, time 0) was 1.0 and the SIGNAL ([1]; polymer TMQ, time 0 (background, before enzyme)) was 77.9. For the same molecule, the “HALF-TIME TO PLATEAU (min.) AL LOW ALK PHOS CONCENTRATION” value [2] was 0.93 min, the “Alkaline phosphatase detection limit (at 2× background)” value (“Alkaline phosphatase detection limit” below) ([3]; SAPPHIRE II, 5 MINUTE INCUBATION) was 0.0014 pM and the “Alkaline phosphatase detection limit” value ([3]; SAPPHIRE II, 20 MINUTE INCUBATION) was 0.00031 pM. The “Alkaline phosphatase detection limit” value ([3]; SAPPHIRE, 5 MINUTE INCUBATION) was 0.0031 pM and the “Alkaline phosphatase detection limit” value ([3]; SAPPHIRE, 20 MINUTE INCUBATION) was 0.0011 pM.
